From patent US11161850B2, “Fused pyrazine derivatives as A2A / A2B inhibitors” (Incyte Corporation, priority 2018, dated 2021)
Like-named read-outs stand apart in the source and are kept apart here.

What was measured:
[1] = molecular target: Adenosine A2A (Homo sapiens (Human), UniProt P29274); experiment: A2A Tag-Lite HTRF assay; type: binding
From the text: Example C. A2A Tag-Lite® HTRF Assay

[2] = molecular target: human adenosine A2B receptor (Homo sapiens (Human), UniProt P29275); experiment: Adenosine A2B Receptor Cyclic AMP GS Assay; type: cell-based; conditions: HEK-293 cells expressing human A2B, agonist NECA 12 nM
Method: Example B. Adenosine A2B Receptor Cyclic AMP GS Assay
Stably transfected HEK-293 cells expressing the human adenosine A2B receptor (Perkin Elmer) were maintained in MEM culture medium with 10% FBS and 100 μg/mL Geneticin (Life Technologies). 18 to 24 hours prior to assay, geneticin was removed from culture. The cisbio cAMP-GS Dynamic kit utilizing the FRET (Fluorescence Resonance Energy Transfer) technology was used to measure cAMP accumulation in the cells. Compounds of the present disclosure at an appropriate concentration were mixed with 10000 cells/well in white 96 well half area plates (Perkin Elmer) for 30 min at room temperature gently shaking. Agonist, NECA (R&D Technologies) at 12 nM was added to each well for 60 min at room temperature gently shaking. Detection reagents, d2-labeled cAMP (acceptor) and anti-cAMP cryptate (donor) were added to each well for 60 min at rt gently shaking. Plates were read on Pherastar (BMG Labtech), fluorescence ratio 665/620 was calculated and EC50 determination was performed by fitting the curve of percent of control versus the log of the compound concentration using GraphPad Prism.

[3] = Tag-Lite Adenosine A2A labeled cells, fluorescent ligand 12.5 nM, read-out: A2A_Ki
[4] = read-out: A2A_Ki, Tag-Lite Adenosine A2A labeled cells, fluorescent ligand 12.5 nM

Chain of Adenosine A2A (P29274 whole entry): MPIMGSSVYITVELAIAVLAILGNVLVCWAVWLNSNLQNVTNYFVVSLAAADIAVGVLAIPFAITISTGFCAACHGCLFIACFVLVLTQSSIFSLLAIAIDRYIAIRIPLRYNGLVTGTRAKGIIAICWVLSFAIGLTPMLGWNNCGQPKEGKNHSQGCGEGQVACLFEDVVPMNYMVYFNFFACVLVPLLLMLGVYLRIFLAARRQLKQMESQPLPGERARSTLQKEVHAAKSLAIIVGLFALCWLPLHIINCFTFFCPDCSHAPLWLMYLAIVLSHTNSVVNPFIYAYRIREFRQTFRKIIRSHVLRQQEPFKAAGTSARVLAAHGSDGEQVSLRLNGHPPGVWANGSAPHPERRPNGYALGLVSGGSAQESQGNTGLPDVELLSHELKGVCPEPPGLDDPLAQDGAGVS
Chain of human adenosine A2B receptor (P29275 whole entry): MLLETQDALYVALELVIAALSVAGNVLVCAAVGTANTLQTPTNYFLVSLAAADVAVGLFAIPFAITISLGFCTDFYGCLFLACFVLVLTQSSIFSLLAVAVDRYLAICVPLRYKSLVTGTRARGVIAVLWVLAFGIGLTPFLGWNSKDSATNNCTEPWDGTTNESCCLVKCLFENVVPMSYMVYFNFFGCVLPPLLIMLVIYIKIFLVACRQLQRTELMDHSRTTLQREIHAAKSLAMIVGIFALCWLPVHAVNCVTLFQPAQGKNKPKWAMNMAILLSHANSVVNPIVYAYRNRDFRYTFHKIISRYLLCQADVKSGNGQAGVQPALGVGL

N#Cc1cccc(-c2nc(N)c3cc(C(O)c4ccccc4F)nn3c2-c2ccncn2)c1 (racemic) [Example 23, 3-(4-Amino-2-((2-fluorophenyl)(hydroxy)methyl)-7-(pyrimidin-4-yl)pyrazolo[1,5-a]pyrazin-6-yl)benzonitrile]
Ki [1, 3]: < 10 nM | EC50 ([2]; A2B_cAMP_EC50 (nM)): < 10 nM

Cc1ncoc1-c1c(-c2cccc(C#N)c2)nc(N)c2nc(C(O)c3ccccn3)nn12 (racemic) [Example 40, 3-(8-Amino-2-(hydroxy(pyridin-2-yl)methyl)-5-(4-methyloxazol-5-yl)-[1,2,4]triazolo[1,5-a]pyrazin-6-yl)benzonitrile]
Ki [1, 3]: < 10 nM | EC50 ([2]; A2B_cAMP_EC50 (nM)): < 10 nM

N#Cc1cccc(-c2nc(N)c3nc(C(O)c4c(F)cccc4F)nn3c2-c2ccc3nncn3c2)c1 (racemic) [Example 104, 3-(5-([1,2,4]triazolo[4,3-a]pyridin-6-yl)-8-amino-2-((2,6-difluorophenyl)(hydroxy)methyl)-[1,2,4]triazolo[1,5-a]pyrazin-6-yl)benzonitrile]
Ki [1, 3]: < 10 nM | EC50 ([2]; A2B_cAMP_EC50 (nM)): 10 to 100 nM

N#Cc1cccc(-c2cn3nc(C(O)c4c(F)cccc4CN4CCN5C(=O)CCC5C4)nc3c(N)n2)c1F (racemic) [Example 113, 3-(8-amino-2-((2-fluoro-6-((6-oxohexahydropyrrolo[1,2-a]pyrazin-2(1H)-yl)methyl)phenyl)(hydroxy)methyl)-[1,2,4]triazolo[1,5-a]pyrazin-6-yl)-2-fluorobenzonitrile]
Ki [1, 3]: < 10 nM | EC50 ([2]; A2B_cAMP_EC50 (nM)): 10 to 100 nM

N#Cc1cccc(-c2nc(N)c3nc(C(O)c4c(F)cccc4F)nn3c2-c2ccncn2)c1 (single isomer, unassigned) [Example 49, 3-(8-Amino-2-((2,6-difluorophenyl)(hydroxy)methyl)-5-(pyrimidin-4-yl)-[1,2,4]triazolo[1,5-a]pyrazin-6-yl)benzonitrile]
Ki [1]: < 10 nM | EC50 ([2]; A2B_cAMP_EC50 (nM)): < 10 nM

N#Cc1cccc(-c2nc(N)c3nc(C(O)c4c(F)cccc4F)nn3c2-c2ccncn2)c1 (single isomer, unassigned) [Example 50, 3-(8-Amino-2-((2,6-difluorophenyl)(hydroxy)methyl)-5-(pyrimidin-4-yl)-[1,2,4]triazolo[1,5-a]pyrazin-6-yl)benzonitrile]
Ki [1, 4]: < 10 nM | EC50 ([2]; read-out: A2B_cAMP_EC50): < 10 nM

N#Cc1cccc(-c2nc(N)c3nc(C(O)c4cc(F)ccc4F)nn3c2-c2ccncn2)c1 (single isomer, unassigned) [Example 51, 3-(8-Amino-2-((2,5-difluorophenyl)(hydroxy)methyl)-5-(pyrimidin-4-yl)-[1,2,4]triazolo[1,5-a]pyrazin-6-yl)benzonitrile]
Ki [1]: < 10 nM | EC50 ([2]; A2B_cAMP_EC50 (nM)): < 10 nM

N#Cc1cccc(-c2nc(N)c3nc(C(O)c4cc(F)ccc4F)nn3c2-c2ccncn2)c1 (single isomer, unassigned) [Example 52, 3-(8-Amino-2-((2,5-difluorophenyl)(hydroxy)methyl)-5-(pyrimidin-4-yl)-[1,2,4]triazolo[1,5-a]pyrazin-6-yl)benzonitrile]
Ki [1, 4]: < 10 nM | EC50 ([2]; read-out: A2B_cAMP_EC50): < 10 nM

N#Cc1cccc(-c2nc(N)c3nc(C(O)c4cccc(F)c4F)nn3c2-c2ccncn2)c1 (single isomer, unassigned) [Example 53, 3-(8-Amino-2-((2,3-difluorophenyl)(hydroxy)methyl)-5-(pyrimidin-4-yl)-[1,2,4]triazolo[1,5-a]pyrazin-6-yl)benzonitrile]
Ki [1]: < 10 nM | EC50 ([2]; A2B_cAMP_EC50 (nM)): < 10 nM

N#Cc1cccc(-c2nc(N)c3nc(C(O)c4cccc(F)c4F)nn3c2-c2ccncn2)c1 (single isomer, unassigned) [Example 54, 3-(8-Amino-2-((2,3-difluorophenyl)(hydroxy)methyl)-5-(pyrimidin-4-yl)-[1,2,4]triazolo[1,5-a]pyrazin-6-yl)benzonitrile]
Ki [1, 4]: < 10 nM | EC50 ([2]; read-out: A2B_cAMP_EC50): < 10 nM

N#Cc1cccc(-c2nc(N)c3nc(C(O)c4ccccc4F)nn3c2-c2ccncn2)c1 (single isomer, unassigned) [Example 55, 3-(8-Amino-2-((2-fluorophenyl)(hydroxy)methyl)-5-(pyrimidin-4-yl)-[1,2,4]triazolo[1,5-a]pyrazin-6-yl)benzonitrile]
Ki [1]: < 10 nM | EC50 ([2]; A2B_cAMP_EC50 (nM)): < 10 nM

N#Cc1cccc(-c2nc(N)c3nc(C(O)c4ccccc4F)nn3c2-c2ccncn2)c1 (single isomer, unassigned) [Example 56, 3-(8-Amino-2-((2-fluorophenyl)(hydroxy)methyl)-5-(pyrimidin-4-yl)-[1,2,4]triazolo[1,5-a]pyrazin-6-yl)benzonitrile]
Ki [1, 4]: < 10 nM | EC50 ([2]; read-out: A2B_cAMP_EC50): < 10 nM

N#Cc1cccc(-c2nc(N)c3nc(C(O)c4ccccc4Cl)nn3c2-c2ccncn2)c1 (single isomer, unassigned) [Example 57, 3-(8-Amino-2-((2-chlorophenyl)(hydroxy)methyl)-5-(pyrimidin-4-yl)-[1,2,4]triazolo[1,5-a]pyrazin-6-yl)benzonitrile]
Ki [1]: < 10 nM | EC50 ([2]; A2B_cAMP_EC50 (nM)): < 10 nM

N#Cc1cccc(-c2nc(N)c3nc(C(O)c4ccccc4Cl)nn3c2-c2ccncn2)c1 (single isomer, unassigned) [Example 58, 3-(8-Amino-2-((2-chlorophenyl)(hydroxy)methyl)-5-(pyrimidin-4-yl)-[1,2,4]triazolo[1,5-a]pyrazin-6-yl)benzonitrile]
Ki [1, 4]: < 10 nM | EC50 ([2]; read-out: A2B_cAMP_EC50): < 10 nM

CCn1nccc1-c1c(-c2cccc(C#N)c2)nc(N)c2nc(C(O)c3c(F)cccc3F)nn12 (single isomer, unassigned) [Example 92, 3-(8-amino-2-((2,6-difluorophenyl)(hydroxy)methyl)-5-(1-ethyl-1H-pyrazol-5-yl)-[1,2,4]triazolo[1,5-a]pyrazin-6-yl)benzonitrile]
Ki [1]: < 10 nM | EC50 ([2]; A2B_cAMP_EC50 (nM)): < 10 nM

CCn1nccc1-c1c(-c2cccc(C#N)c2)nc(N)c2nc(C(O)c3c(F)cccc3F)nn12 (single isomer, unassigned) [Example 93, 3-(8-amino-2-((2,6-difluorophenyl)(hydroxy)methyl)-5-(1-ethyl-1H-pyrazol-5-yl)-[1,2,4]triazolo[1,5-a]pyrazin-6-yl)benzonitrile]
Ki [1, 4]: < 10 nM | EC50 ([2]; read-out: A2B_cAMP_EC50): < 10 nM

Cc1cc(-c2c(-c3cccc(C#N)c3)nc(N)c3nc(C(O)c4c(F)cccc4F)nn23)cc(C)n1 (single isomer, unassigned) [Example 94, 3-(8-amino-2-((2,6-difluorophenyl)(hydroxy)methyl)-5-(2,6-dimethylpyridin-4-yl)-[1,2,4]triazolo[1,5-a]pyrazin-6-yl)benzonitrile]
Ki [1]: < 10 nM | EC50 ([2]; A2B_cAMP_EC50 (nM)): 10 to 100 nM

Cc1cc(-c2c(-c3cccc(C#N)c3)nc(N)c3nc(C(O)c4c(F)cccc4F)nn23)cc(C)n1 (single isomer, unassigned) [Example 95, 3-(8-amino-2-((2,6-difluorophenyl)(hydroxy)methyl)-5-(2,6-dimethylpyridin-4-yl)-[1,2,4]triazolo[1,5-a]pyrazin-6-yl)benzonitrile]
Ki [1, 4]: < 10 nM | EC50 ([2]; read-out: A2B_cAMP_EC50): 10 to 100 nM

N#Cc1cccc(-c2nc(N)c3nc(C(O)c4c(F)cccc4OC(F)F)nn3c2-c2ccncn2)c1 (single isomer, unassigned) [Example 97, 3-(8-amino-2-((2-(difluoromethoxy)-6-fluorophenyl)(hydroxy)methyl)-5-(pyrimidin-4-yl)-[1,2,4]triazolo[1,5-a]pyrazin-6-yl)benzonitrile]
Ki [1]: < 10 nM | EC50 ([2]; A2B_cAMP_EC50 (nM)): < 10 nM
